Data on 27 molecules can be found in patent US8501936B2 (priority 2009, dated 2013).

The target of assay [1] is T1, human JAK2 (Homo sapiens (Human), UniProt O60674). Kind of assay: biochemical.
The target of assay [2] is T2, human FAK (Homo sapiens (Human), UniProt Q05397). Put plainly: biochemical.
For assay [3], the target named is T2, human FAK. To be noted: read-out: FAK IC50.
Assay [4] addresses T1, human JAK2. As to conditions: read-out: JAK2 IC50.

Like-named read-outs stand apart in the source and are kept apart here.

T1 sequence (O60674 815-1132): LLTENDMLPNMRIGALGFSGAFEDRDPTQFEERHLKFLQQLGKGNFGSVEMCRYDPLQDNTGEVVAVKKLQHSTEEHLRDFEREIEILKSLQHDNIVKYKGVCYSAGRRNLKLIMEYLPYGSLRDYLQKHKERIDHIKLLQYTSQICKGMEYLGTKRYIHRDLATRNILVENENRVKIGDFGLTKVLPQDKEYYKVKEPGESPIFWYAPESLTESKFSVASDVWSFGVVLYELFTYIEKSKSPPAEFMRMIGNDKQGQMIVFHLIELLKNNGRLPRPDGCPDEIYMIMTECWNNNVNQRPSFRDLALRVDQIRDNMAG
T2 sequence (Q05397 whole entry): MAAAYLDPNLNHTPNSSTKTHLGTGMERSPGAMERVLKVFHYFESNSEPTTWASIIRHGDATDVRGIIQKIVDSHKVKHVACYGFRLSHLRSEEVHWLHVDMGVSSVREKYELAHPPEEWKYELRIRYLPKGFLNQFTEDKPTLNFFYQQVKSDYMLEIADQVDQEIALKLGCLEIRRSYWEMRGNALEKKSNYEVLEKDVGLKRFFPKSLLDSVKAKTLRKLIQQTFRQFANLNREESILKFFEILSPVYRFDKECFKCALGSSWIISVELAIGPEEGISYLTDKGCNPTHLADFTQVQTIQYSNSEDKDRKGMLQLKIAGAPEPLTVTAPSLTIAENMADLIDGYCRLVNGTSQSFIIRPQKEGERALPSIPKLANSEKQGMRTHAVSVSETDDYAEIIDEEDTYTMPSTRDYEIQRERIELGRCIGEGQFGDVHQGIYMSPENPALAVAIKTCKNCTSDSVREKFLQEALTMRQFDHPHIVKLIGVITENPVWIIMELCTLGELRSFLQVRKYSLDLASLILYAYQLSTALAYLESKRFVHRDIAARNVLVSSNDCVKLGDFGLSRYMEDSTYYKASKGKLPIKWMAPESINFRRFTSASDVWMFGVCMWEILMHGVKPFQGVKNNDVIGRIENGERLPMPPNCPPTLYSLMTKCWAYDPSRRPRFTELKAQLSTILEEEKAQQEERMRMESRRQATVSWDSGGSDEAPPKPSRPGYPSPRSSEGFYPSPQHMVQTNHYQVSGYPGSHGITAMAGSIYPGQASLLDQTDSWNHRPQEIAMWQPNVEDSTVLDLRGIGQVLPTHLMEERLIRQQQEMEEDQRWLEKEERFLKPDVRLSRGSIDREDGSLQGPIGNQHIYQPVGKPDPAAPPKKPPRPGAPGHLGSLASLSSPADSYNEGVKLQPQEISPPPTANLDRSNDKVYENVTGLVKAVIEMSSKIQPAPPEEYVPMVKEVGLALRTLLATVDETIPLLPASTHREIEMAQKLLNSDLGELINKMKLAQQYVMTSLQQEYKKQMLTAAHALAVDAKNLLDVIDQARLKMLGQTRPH

Broadly, the IC50 is the concentration that gives 50% inhibition. `CS(=O)(=O)c1ccc(-c2cccn3nc(Nc4cccc([C@@H]5CCNC[C@@H]5O)c4)nc23)cc1` (racemic) [Example 188, (±)-(cis)-4-{3-[8-(4-Methanesulfonyl-phenyl)-[1,2,4]triazolo[1,5-a]pyridin-2-ylamino]-phenyl}-piperidin-3-ol]: the values for the IC50 against human JAK2 [1] and at human FAK [2] were 1.43 nM and 1940 nM, respectively.

Take `CS(=O)(=O)c1ccc(-c2cccn3nc(Nc4cccc(N5CCC(N6CCOCC6)CC5)c4)nc23)cc1` [Example 57, [8-(4-Methanesulfonyl-phenyl)-[1,2,4]triazolo[1,5-a]pyridin-2-yl]-[3-(4-morpholin-4-yl-piperidin-1-yl)-phenyl]-amine]: the values for the IC50 at human FAK [3] and against human JAK2 [1] were 1180 nM and 0.5 nM, respectively.

Consider `FC(F)COc1ccc(C(F)F)cc1-c1cccn2nc(Nc3ccc4c(c3)CCNCC4)nc12` [Example 384, {8-[2-(2,2-Difluoro-ethoxy)-5-difluoromethyl-phenyl]-[1,2,4]triazolo[1,5-a]pyridin-2-yl}-(2,3,4,5-tetrahydro-1H-3-benzazepin-7-yl)-amine], for which the IC50 at human JAK2 [4] was 203 nM; on human FAK [3], 1080 nM.

For the molecule `CN(C)C(=O)CN1CCc2ccc(Nc3nc4c(-c5cc(C(F)F)ccc5OCC(F)F)cccn4n3)cc2CC1` [Example 385, 2-(7-{8-[2-(2,2-difluoro-ethoxy)-5-difluoromethyl-phenyl]-[1,2,4]triazolo[1,5-a]pyridin-2-ylamino}-1,2,4,5-tetrahydro-3-benzazepin-3-yl)-N,N-dimethyl-acetamide], the IC50 came to 270 nM on human JAK2 [4] and 1120 nM on human FAK [3].

For the molecule `CN1CCN(c2cncc(Nc3nc4c(-c5ccc(S(C)(=O)=O)cc5)cccn4n3)n2)CC1` [Example 386, [8-(4-Methanesulfonyl-phenyl)-[1,2,4]triazolo[1,5-a]pyridin-2-yl]-(4-methyl-3,4,5,6-tetrahydro-2H-[1,2′]bipyrazinyl-6′-yl)-amine], the IC50 worked out at 29.9 nM at human JAK2 [4] and 10000 nM on human FAK [3].

As for `COc1ccccc1CNc1cccn2nc(Nc3ccc(N4CCN(C)CC4)cc3)nc12` [Example 387, N(8)-(2-Methoxy-benzyl)-N(2)-[4-(4-methyl-piperazin-1-yl)-phenyl]-[1,2,4]triazolo[1,5-a]pyridine-2,8-diamine], the IC50 at human JAK2 [4] was 12.3 nM; on human FAK [3], 553 nM.

Consider `COc1ccccc1CNc1cccn2nc(Nc3cccc(N4CCN(C)CC4)c3)nc12` [Example 388, N(8)-(2-Methoxy-benzyl)-N(2)-[3-(4-methyl-piperazin-1-yl)-phenyl]-[1,2,4]triazolo[1,5-a]pyridine-2,8-diamine], for which the IC50 on human JAK2 [4] was 46 nM; on human FAK [3], 951 nM.

With `CN1CCN(c2cncc(Nc3nc4c(NCc5ccccc5N(C)S(C)(=O)=O)cccn4n3)n2)CC1` [Example 389, N-Methyl-N-(2-{[2-(4-methyl-3,4,5,6-tetrahydro-2H-[1,2′]bipyrazinyl-6′-ylamino)-[1,2,4]triazolo[1,5-a]pyridin-8-ylamino]-methyl}-phenyl)-methanesulfonamide], the IC50 at human JAK2 [4] came out at 6500 nM; at human FAK [3], 1060 nM.

For the molecule `COc1cccc(CNc2cccn3nc(Nc4ccc(N5CCN(C)CC5)cc4)nc23)c1` [Example 390, N(8)-(3-Methoxy-benzyl)-N(2)-[4-(4-methyl-piperazin-1-yl)-phenyl]-[1,2,4]triazolo[1,5-a]pyridine-2,8-diamine], the IC50 is 1340 nM on human JAK2 [4] and 10000 nM at human FAK [3].

With `COc1ccc(CNc2cccn3nc(Nc4ccc(N5CCN(C)CC5)cc4)nc23)cc1` [Example 391, N(8)-(4-Methoxy-benzyl)-N(2)-[4-(4-methyl-piperazin-1-yl)-phenyl]-[1,2,4]triazolo[1,5-a]pyridine-2,8-diamine], the IC50 at human JAK2 [4] was determined as 3020 nM; at human FAK [3], 10000 nM.

For `COc1cccc(CNc2cccn3nc(Nc4cccc(N5CCN(C)CC5)c4)nc23)c1` [Example 392, N(8)-(3-Methoxy-benzyl)-N(2)-[3-(4-methyl-piperazin-1-yl)-phenyl]-[1,2,4]triazolo[1,5-a]pyridine-2,8-diamine], the IC50 at human JAK2 [4] came to 3000 nM; on human FAK [3], 10000 nM.

For the molecule `COc1ccc(CNc2cccn3nc(Nc4cccc(N5CCN(C)CC5)c4)nc23)cc1` [Example 393, N(8)-(4-Methoxy-benzyl)-N(2)-[3-(4-methyl-piperazin-1-yl)-phenyl]-[1,2,4]triazolo[1,5-a]pyridine-2,8-diamine], the IC50 at human JAK2 [4] and on human FAK [3] was 10000 nM each time.

In the case of `COc1cccc(CNc2cccn3nc(Nc4ccc(OC)nc4)nc23)c1` [Example 394, N(8)-(3-Methoxy-benzyl)-N(2)-(6-methoxy-pyridin-3-yl)-[1,2,4]triazolo[1,5-a]pyridine-2,8-diamine], the IC50 on human JAK2 [4] and on human FAK [3] was 10000 nM throughout.

Regarding `CN1CCN(c2cccc(Nc3nc4c(NCc5ccccc5F)cccn4n3)c2)CC1` [Example 395, N(8)-(2-Fluoro-benzyl)-N(2)-[3-(4-methyl-piperazin-1-yl)-phenyl]-[1,2,4]triazolo[1,5-a]pyridine-2,8-diamine], the IC50 was 180 nM on human JAK2 [4] and 1480 nM at human FAK [3].

Regarding `CN1CCN(c2cccc(Nc3nc4c(NCc5ccc(F)cc5)cccn4n3)c2)CC1` [Example 396, N(8)-(4-Fluoro-benzyl)-N(2)-[3-(4-methyl-piperazin-1-yl)-phenyl]-[1,2,4]triazolo[1,5-a]pyridine-2,8-diamine], the figures for the IC50 at human JAK2 [4] and on human FAK [3] were 1430 nM and 10000 nM, respectively.

For the molecule `COc1cccc(CNc2cccn3nc(Nc4ccnc(C)c4)nc23)c1` [Example 397, N(8)-(3-Methoxy-benzyl)-N(2)-(2-methyl-pyridin-4-yl)-[1,2,4]triazolo[1,5-a]pyridine-2,8-diamine], the IC50 at human JAK2 [4] stood at 592 nM; at human FAK [3], 10000 nM.

With `COc1cccc(CNc2cccn3nc(Nc4cccnc4)nc23)c1` [Example 398, N(8)-(3-Methoxy-benzyl)-N(2)-pyridin-3-yl-[1,2,4]triazolo[1,5-a]pyridine-2,8-diamine], the IC50 is 816 nM on human JAK2 [4] and 10000 nM at human FAK [3].

As for `COc1ccccc1CNc1cccn2nc(Nc3cccnc3)nc12` [Example 400, N(8)-(2-Methoxy-benzyl)-N(2)-pyridin-3-yl-[1,2,4]triazolo[1,5-a]pyridine-2,8-diamine], the results for the IC50 on human JAK2 [4] and at human FAK [3] were 32.3 nM and 3120 nM, respectively.

Take `COc1ccc(Nc2nc3c(NCc4ccccc4OC)cccn3n2)cn1` [Example 402, N(8)-(2-Methoxy-benzyl)-N(2)-(6-methoxy-pyridin-3-yl)-[1,2,4]triazolo[1,5-a]pyridine-2,8-diamine]: the IC50 came out at 42.7 nM on human JAK2 [4] and 3000 nM at human FAK [3].

Take `COc1ccccc1CNc1cccn2nc(Nc3ccc(C)nc3)nc12` [Example 403, N(8)-(2-Methoxy-benzyl)-N(2)-(6-methyl-pyridin-3-yl)-[1,2,4]triazolo[1,5-a]pyridine-2,8-diamine]: the IC50 was found to be 27.6 nM at human JAK2 [4] and 1880 nM at human FAK [3].

As to `COc1ccccc1CNc1cccn2nc(Nc3ccnc(C)c3)nc12` [Example 404, N(8)-(2-Methoxy-benzyl)-N(2)-(2-methyl-pyridin-4-yl)-[1,2,4]triazolo[1,5-a]pyridine-2,8-diamine], the IC50 was 24.7 nM on human JAK2 [4] and 2580 nM on human FAK [3].

`COc1cccc(CNc2cccn3nc(Nc4ccc(C)nc4)nc23)c1` [Example 405, N(8)-(3-Methoxy-benzyl)-N(2)-(6-methyl-pyridin-3-yl)-[1,2,4]triazolo[1,5-a]pyridine-2,8-diamine]: the IC50 came to 1020 nM on human JAK2 [4] and 10000 nM on human FAK [3].

Regarding `CS(=O)(=O)c1ccc(-c2cccn3nc(NCCc4ccccn4)nc23)cc1` [Example 406, [8-(4-Methanesulfonyl-phenyl)-[1,2,4]triazolo[1,5-a]pyridin-2-yl]-(2-pyridin-2-yl-ethyl)-amine], the IC50 at human JAK2 [4] and on human FAK [3] was 10000 nM each time.

Consider `CS(=O)(=O)c1ccc(-c2cccn3nc(NCCc4cccnc4)nc23)cc1` [Example 407, [8-(4-Methanesulfonyl-phenyl)-[1,2,4]triazolo[1,5-a]pyridin-2-yl]-(2-pyridin-3-yl-ethyl)-amine], for which the concentration for half-maximal inhibition (IC50) at human JAK2 [4] is 1980 nM; on human FAK [3], 10000 nM.

For the molecule `CS(=O)(=O)c1ccc(-c2cccn3nc(NCc4cccnc4)nc23)cc1` [Example 408, [8-(4-Methanesulfonyl-phenyl)-[1,2,4]triazolo[1,5-a]pyridin-2-yl]-pyridin-3-ylmethyl-amine], the IC50 on human JAK2 [4] was determined as 2760 nM; at human FAK [3] it was 10000 nM.

On to `CS(=O)(=O)c1ccc(-c2cccn3nc(NCc4ccccn4)nc23)cc1` [Example 409, [8-(4-Methanesulfonyl-phenyl)-[1,2,4]triazolo[1,5-a]pyridin-2-yl]-pyridin-2-ylmethyl-amine], for which the IC50 at human JAK2 [4] turned out to be 6500 nM; on human FAK [3] it was 10000 nM.

`CCN1CCP(=O)(c2ccc(Nc3nc4c(-c5ccc(S(C)(=O)=O)cc5)cccn4n3)cc2)CC1` [Example 411, N-[4-(1-ethyl-4-oxido-1,4-azaphosphinan-4-yl)phenyl]-8-[4-(methylsulfonyl)phenyl][1,2,4]triazolo[1,5-a]pyridin-2-amine]: the IC50 is 1.62 nM at human JAK2 [4] and 1860 nM on human FAK [3].
